Measurements as given in paper PMC8706879 (Pharmaceuticals, 2021).
Read-outs that look alike come from different tables or passages of the source. Blank lines part the entries; values can stand above or below the molecule they belong to. Where a SMILES comes first, the peptide text is derived from it. Bridges are numbered along the chain shown (N, C = ends). [ ]: non-standard residue; d: D form. The star is where a group is joined. DOTA = O=C(O)CN1CCN(CC(=O)O)CCN(CC(=O)*)CCN(CC(=O)O)CC1; dPhe(4-NHCONH2) = NC(=O)Nc1ccc(C[C@@H](N)C(=O)O)cc1; Dihydroorotyl(S) = O=C1C[C@@H](C(=O)*)NC(=O)N1; Phe(4-Cl) = N[C@@H](Cc1ccc(Cl)cc1)C(=O)O; Phe(4-NH2) = Nc1ccc(C[C@H](N)C(=O)O)cc1

Assays:
[1] = biological target: T1, human SST2 (Homo sapiens, UniProt P30874); assay: biochemical
Experimental: (§1) To prepare cell membranes, HEK-SST2 cells were grown to confluence, mechanically disaggregated, washed with PBS (pH 7.4) and re-suspended in 20 mM of homogenisation Tris buffer (pH 7.5) containing 1.3 mM EDTA, 0.25 M sucrose, 0.7 mM bacitracin, 5 µM soybean trypsin inhibitor and 0.7 mM PMSF. The cells were homogenised using Ultra-Turrax, and the homogenised suspension was centrifuged at 500× g for 10 min at 4 °C. The supernatant was collected in centrifuge tubes (Beckman Coulter Inc., Brea, CA, USA). This procedure was then repeated 5 times. The collected supernatant was centrifuged in an ultra-centrifuge (Beckman) at 4 °C for 55 min at 20,000 rpm (approximately 49,000× g). Then, the pellet was re-suspended in 10 mM ice-cold HEPES buffer (pH 7.5), aliquoted, and stored at −80 °C. The protein concentration of those membrane suspensions was determined by the Bradford method, BSA as the standard.
(§2) In all assays, non-specific binding of [^177Lu]Lu-OPS201 was determined using 1000-fold excess of the unlabelled SST2 antagonist OPS202, also known as NODAGA-JR11, (where NODAGA is 1,4,7-triazacyclononane,1-glutaric acid-4,7-acetic acid). […] All reported values refer to specific binding (total minus non-specific binding). The radioactivity of all samples was measured in a gamma-counter (COBRA 5003, Packard Instruments). For all binding experiments with membranes, bound radioligand was separated from the one remaining in solution by rapid vacuum filtration, using an M-48 Brandel Cell Harvester (Alpha Biotech Ltd., Glasgow, UK). The filters were dried before being measured in the gamma-counter.
The dissociation of those radioligands was initiated by adding a 1000-fold excess of either unlabelled Lu-OPS201, Lu-DOTA-TATE, DOTA-BASS or lanreotide and monitored for up to 3 h. To monitor the stability of the radioligand–receptor complex during this extended time period, the membranes were incubated with radioligand for up to 4 h.

[2] = system: HEK-SST2 cells; assay: Externalisation of [^177Lu]Lu-DOTA-TATE by intact cells; format: cell-based, human
Experimental: (§3) In vitro assays on intact cells were performed with HEK-SST2 cells seeded in 6-well plates. The plates were pre-treated with a solution of 10% poly-lysine to promote cell attachment. HEK-SST2 cells (about 1 × 10^6 cells) were incubated in 1% (v/v) FBS containing medium at 37 °C/5% CO2 overnight. The day after, the cells were washed with medium, followed by incubation with the adjusted medium volume for 1 h prior starting the experiment. […] The cells were afterwards incubated at 37 °C under the same three different conditions as above. […] At the end, the cells were treated with NaOH and collected for measurement. All reported values were also normalised as described above. In both aforementioned experiments, the 37 °C washout medium was repeatedly refreshed in an attempt to limit any re-equilibration between free and cell-associated radioligand and to reduce the accumulation (and thus the rebinding) of radioligand molecules when they were already dispersed in the bulk of the naïve medium. All data were fitted according to the one-phase exponential decay equation (GraphPad Software Inc., Prism 7).

[3] = system: HEK-SST2 cells; assay: Sub-cellular redistribution of cell surface-bound radioligand at 37 °C; format: cell-based, human; set-up: reduction of initial surface-bound fraction: concentration or dose not given beside the values
Experimental: (§4) In vitro assays on intact cells were performed with HEK-SST2 cells seeded in 6-well plates. The plates were pre-treated with a solution of 10% poly-lysine to promote cell attachment. HEK-SST2 cells (about 1 × 10^6 cells) were incubated in 1% (v/v) FBS containing medium at 37 °C/5% CO2 overnight. The day after, the cells were washed with medium, followed by incubation with the adjusted medium volume for 1 h prior starting the experiment.
as §2
The cell surface-bound internalisation and dissociation rates of [^177Lu]Lu-OPS201 were studied in HEK-SST2 cells seeded in 6-well plates (10^6 cells/well), which were first placed on ice for 30 min. The experiment was started by adding 2.5 nM [^177Lu]Lu-OPS201 to the medium, and the incubation was carried out at 4 °C for 2 h to prevent internalisation of the radioligand. Afterwards, the cells were washed with ice-cold PBS, and 1 mL/well of fresh pre-warmed (37 °C) medium was added. One plate was immediately treated with ice-cold glycine solution, and then the cells were detached with NaOH to determine the initial surface-bound and internalised fraction. The other plates were incubated at 37 °C for 10, 20, 30, 60, 120 or 240 min (one plate per time point) before the same treatment. At the specified time points, the amount of radioactivity, presented as cell surface-bound, internalised and in medium redistributed radioligand, was expressed in percentage of the cell-associated fraction (surface bound and internalised uptake) at the onset of the redistribution step as control. All reported values have been corrected for non-specific uptake.

[4] = system: HEK-SST2 cells; assay: Radioligand binding to and internalisation by intact HEK-SST2 cells; format: cell-based, human; conditions: for cell surface bound fraction of total added radioligand / internalised fraction of total added radioligand: 4 h incubation at 37 °C, 2.5 nM
Experimental: The HEK-293 cell line expressing the T7-epitope tagged human SST2 (HEK-SST2) was provided by Prof. Stefan Schulz (Institute of Pharmacology and Toxicology, Jena University Hospital, Jena, Germany). HEK-SST2 cells were cultured at 37 °C and 5% CO2 in DMEM containing 10% FBS, 100 U/mL penicillin, 100 µg/mL streptomycin, […] L-glutamine, and 500 µg/mL geneticin (G-418).
as §4, §2
After 0.5, 1, 2 and 4 h (one plate per time point), the medium was removed, and the plated cells were quickly washed twice with ice-cold PBS. The cells were then treated twice for 5 min with ice-cold glycine solution (0.05 M, pH 2.8) to detach the cell surface-bound radioligand (acid releasable). Afterwards, the cells containing the internalised radioligand were detached with 1 M NaOH at 37 °C and collected for measurement. The amount of specific cell surface-bound and internalised radioligand is expressed as a percentage of the total applied activity after subtracting the non-specific values.

[5] = biological target: T1, human SST2; assay: Saturation binding on HEK-SST2 cell membranes
Experimental: as §1, §2
The incubation was initiated by adding 30 μL of radioligand solution at 10 times the final concentration and 100 μL of cell membrane suspension to yield 10 μg of protein per well.

[6] = system: HEK-SST2 cells; assay: Dissociation/release of cell-associated [^177Lu]Lu-OPS201 by intact cells; format: cell-based, human; conditions: after 4 h at 37 °C
Experimental: as §3, with “then” for “afterwards”, “under three different conditions: […] At preselected time points, the medium was removed for quantification and replaced by fresh pre-warmed (37 °C) medium (either alone or with” for “under”, “unlabelled competitor).” for “three different conditions as above.”, “All” for “All reported”

[7] = after 2 h pre-incubation at 4 °C
[8] = after 4 h of incubation at 37 °C

T1 sequence (P30874 whole entry): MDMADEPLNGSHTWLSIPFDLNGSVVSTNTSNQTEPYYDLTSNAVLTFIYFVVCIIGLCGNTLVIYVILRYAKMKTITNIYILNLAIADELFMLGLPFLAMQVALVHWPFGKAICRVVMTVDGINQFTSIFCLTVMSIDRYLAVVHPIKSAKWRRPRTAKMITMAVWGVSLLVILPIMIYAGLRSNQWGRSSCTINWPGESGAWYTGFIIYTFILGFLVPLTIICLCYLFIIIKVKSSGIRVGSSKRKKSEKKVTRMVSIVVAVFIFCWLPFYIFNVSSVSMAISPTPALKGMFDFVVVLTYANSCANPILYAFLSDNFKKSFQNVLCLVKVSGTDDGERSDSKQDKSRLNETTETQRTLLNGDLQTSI

Molecule: H-D2Nal-c(Cys-Tyr-DTrp-Lys-Val-Cys)-Thr-NH2 [lanreotide, reference compound]
displacement of specifically bound [^177Lu]Lu-OPS201 by the unlabelled agonist ([1]; high concentration (1000-fold excess) of competitor, HEK-SST2 membranes): no more than 30%

Molecule: C[C@@H](O)[C@H](NC(=O)[C@@H]1CSSC[C@H](NC(=O)[C@@H](Cc2ccccc2)NC(=O)CN2CCN(CC(=O)O)CCN(CC(=O)O)CCN(CC(=O)O)CC2)C(=O)N[C@@H](Cc2ccc(O)cc2)C(=O)N[C@H](Cc2c[nH]c3ccccc23)C(=O)N[C@@H](CCCCN)C(=O)N[C@@H]([C@@H](C)O)C(=O)N1)C(=O)O [[^177Lu]Lu-DOTA-TATE, ^177Lu-oxodotreotide, metal not drawn]
decrease of internalised radioligand during washout ([2]; after 4 h in naïve medium, 37 °C): only partial | decrease of internalised radioligand during washout ([2]; after 4 h in the presence of an excess of Lu-DOTA-TATE and Lu-OPS201, 37 °C): nearly complete | cell surface binding at 4 °C ([3]; 4 °C): very low cell surface binding | internalised fraction ([4]; 30 min of incubation at 37 °C): more than 50% | cell surface bound fraction of total added radioligand [4]: 2 ± 1% | internalised fraction of total added radioligand [4]: 77 ± 3%

Bmax ([5]; HEK-SST2 cell membranes 10 µg/well, 37 °C, single-site model): 0.37 ± 0.02 nM | Kd ([5]; HEK-SST2 cell membranes, 37 °C, single-site model): 0.15 ± 0.003 nM | number of binding sites recognised relative to [^177Lu]Lu-DOTA-TATE ([5]; saturation binding, HEK-SST2 cell membranes): about four times more sites | dissociation t1/2 [1]: 41 min | koff ([1]; HEK-SST2 membranes, competitor DOTA-BASS): 0.0003 s⁻¹ | koff ([1]; HEK-SST2 membranes, competitor Lu-OPS201): 0.000283 s⁻¹ | dissociation t1/2 ([1]; competitor: excess DOTA-BASS): 38 min
Molecule: C[C@@H](O)[C@@H]1NC(=O)[C@H](CCCCN)NC(=O)[C@@H](Cc2ccc(NC(N)=O)cc2)NC(=O)[C@H](Cc2ccc(NC(=O)[C@@H]3CC(=O)NC(=O)N3)cc2)NC(=O)[C@H](NC(=O)[C@H](Cc2ccc(Cl)cc2)NC(=O)CN2CCN(CC(=O)O)CCN(CC(=O)O)CCN(CC(=O)O)CC2)CSSC[C@@H](C(=O)N[C@H](Cc2ccc(O)cc2)C(N)=O)NC1=O [[^177Lu]Lu-OPS201, ^177Lu-satoreotide tetraxetan, metal not drawn] ({DOTA}-[Phe(4-Cl)][dC][Phe(4-NH2)](Dihydroorotyl(S))[dPhe(4-NHCONH2)]KTC[dY]-NH2; disulfide 2-7)
internalised fraction of added radioligand [3, 7]: 7% | surface-bound fraction of added radioligand [3, 7]: 54% | fraction released in the medium ([3]; after 4 h at 37 °C, undisturbed medium): < 5% | internalised fraction (of cell-associated activity) [3, 8]: 24% | reduction of initial surface-bound fraction [3, 8]: 17% | surface-bound fraction (of cell-associated activity) [3, 8]: 71% | internalised fraction (of cell-associated activity) ([3]; t = 0 of 37 °C incubation): 12% | surface-bound fraction (of cell-associated activity) ([3]; t = 0 of 37 °C incubation): 88% | radioligand released ([6]; repeatedly refreshed naïve medium): 40% | radioligand released ([6]; washout medium with excess of unlabelled Lu-OPS201 or Lu-DOTA-TATE): 70% | cell surface bound fraction of total added radioligand [4]: 46 ± 2% | internalised fraction of total added radioligand [4]: 31 ± 1%
